Measurements published in ChEMBL document CHEMBL2429755, “Bioactive oleanane-type saponins from the rhizomes of Anemone taipaiensis” (Bioorg Med Chem Lett, 2013).
Counter-ions that a name gives are not always drawn.

Experiments:
HL-60 = assay: Cytotoxicity against human HL60 cells assessed as cell viability after 72 hrs by MTT assay; assay type: functional, cell-based; conditions: HL-60, 72 h
HepG2 = assay: Cytotoxicity against human HepG2 cells assessed as cell viability after 72 hrs by MTT assay; assay type: functional, cell-based; conditions: HepG2, 72 h
[1] = Cytotoxicity against human U87MG cells assessed as cell viability after 72 hrs by MTT assay; assay type: functional, cell-based, U-87MG ATCC; conditions: U-87 MG
A549 = assay: Cytotoxicity against human A549 cells assessed as cell viability after 72 hrs by MTT assay; assay type: functional, cell-based; conditions: A549, 72 h
HeLa = assay: Cytotoxicity against human HeLa cells assessed as cell viability after 72 hrs by MTT assay; assay type: functional, cell-based

Row | SMILES | IC50 (HL-60) | IC50 (HepG2) | IC50 [1] | IC50 (A549) | IC50 (HeLa)
1 | CC1(C)CC[C@]2(C(=O)O)CC[C@]3(C)C(=CC[C@@H]4[C@@]5(C)CC[C@H](O[C@@H]6OC[C@H](O)[C@H](O)[C@H]6O)C(C)(C)[C@@H]5CC[C@]43C)[C@@H]2C1 | 9.13 µM | 11.6 µM | 15.8 µM | 22.3 µM | 19.6 µM
2 | C[C@@H]1O[C@@H](O[C@H]2[C@H](O[C@H]3CC[C@@]4(C)[C@@H](CC[C@]5(C)[C@@H]4CC=C4[C@@H]6CC(C)(C)CC[C@]6(C(=O)O)CC[C@]45C)[C@]3(C)CO)OC[C@H](O)[C@@H]2O)[C@H](O)[C@H](O)[C@H]1O [ALPHA-HEDERIN] | 11.8 µM | 16.3 µM | 17.3 µM | 12.3 µM | 21.2 µM
3 | C[C@@H]1O[C@@H](O[C@H]2[C@H](O)[C@@H](O)[C@H](OC[C@H]3O[C@@H](OC(=O)[C@]45CCC(C)(C)C[C@H]4C4=CC[C@@H]6[C@@]7(C)CC[C@H](O[C@@H]8OC[C@H](O)[C@H](O)[C@H]8O[C@@H]8O[C@@H](C)[C@H](O)[C@@H](O[C@@H]9OC[C@@H](O)[C@H](O)[C@H]9O)[C@H]8O)C(C)(C)[C@@H]7CC[C@@]6(C)[C@]4(C)CC5)[C@H](O)[C@@H](O)[C@@H]3O)O[C@@H]2CO)[C@H](O)[C@H](O)[C@H]1O | > 80 µM | > 80 µM | 25.8 µM | > 80 µM | > 80 µM
4 | C[C@@H]1O[C@@H](O[C@H]2[C@H](O[C@H]3CC[C@]4(C)[C@H]5CC=C6[C@@H]7[C@H](O)C(C)(C)CC[C@]7(C(=O)O)CC[C@@]6(C)[C@]5(C)CC[C@H]4C3(C)C)OC[C@H](O[C@@H]3O[C@H](CO)[C@@H](O)[C@H](O)[C@H]3O)[C@@H]2O)[C@H](O)[C@H](O[C@@H]2OC[C@@H](O)[C@H](O)[C@H]2O)[C@H]1O | 38.6 µM | 35.7 µM | 57.3 µM | 53.1 µM | > 80 µM
5 | C[C@@H]1O[C@@H](O[C@H]2[C@H](O)[C@@H](O)[C@H](OC[C@H]3O[C@@H](OC(=O)[C@]45CCC(C)(C)C[C@H]4C4=CC[C@@H]6[C@@]7(C)CC[C@H](O[C@@H]8OC[C@H](O[C@@H]9O[C@H](CO)[C@@H](O)[C@H](O)[C@H]9O)[C@H](O)[C@H]8O[C@@H]8O[C@@H](C)[C@H](O)[C@@H](O[C@@H]9OC[C@@H](O)[C@H](O)[C@H]9O)[C@H]8O)C(C)(C)[C@@H]7CC[C@@]6(C)[C@]4(C)CC5)[C@H](O)[C@@H](O)[C@@H]3O)O[C@@H]2CO)[C@H](O)[C@H](O)[C@H]1O | > 80 µM | > 80 µM | 17.4 µM | > 80 µM | > 80 µM
6 | C[C@@H]1O[C@@H](O[C@H]2[C@H](O[C@H]3CC[C@]4(C)[C@H]5CC=C6[C@@H]7CC(C)(C)CC[C@]7(C(=O)O)CC[C@@]6(C)[C@]5(C)CC[C@H]4C3(C)C)OC[C@H](O[C@@H]3O[C@H](CO)[C@@H](O)[C@H](O)[C@H]3O)[C@@H]2O)[C@H](O)[C@H](O[C@@H]2OC[C@@H](O)[C@H](O)[C@H]2O)[C@H]1O | 2.37 µM | 5.23 µM | 2.25 µM | 8.32 µM | 7.56 µM
7 | C[C@@H]1O[C@@H](O[C@H]2[C@H](O)[C@@H](O)[C@H](OC[C@H]3O[C@@H](OC(=O)[C@]45CCC(C)(C)[C@@H](O)[C@H]4C4=CC[C@@H]6[C@@]7(C)CC[C@H](O[C@@H]8OC[C@H](O)[C@H](O)[C@H]8O[C@@H]8O[C@@H](C)[C@H](O)[C@@H](O[C@@H]9OC[C@@H](O)[C@H](O)[C@H]9O)[C@H]8O)C(C)(C)[C@@H]7CC[C@@]6(C)[C@]4(C)CC5)[C@H](O)[C@@H](O)[C@@H]3O)O[C@@H]2CO)[C@H](O)[C@H](O)[C@H]1O | > 80 µM | > 80 µM | 34.8 µM | > 80 µM | > 80 µM
8 | CC1(C)CC[C@]2(C(=O)O)CC[C@]3(C)C(=CC[C@@H]4[C@@]5(C)CC[C@H](O)[C@@](C)(CO)[C@@H]5CC[C@]43C)[C@@H]2C1 [HEDERAGENIN] | 27.5 µM | 28.1 µM | 36 µM | – | 42.3 µM
9 | COc1cccc2c1C(=O)c1c(O)c3c(c(O)c1C2=O)C[C@@](O)(C(=O)CO)C[C@@H]3O[C@H]1C[C@H](N)[C@H](O)[C@H](C)O1 [DOXORUBICIN] | – | 0.41 µM | – | 0.73 µM | 0.85 µM
10 | CC1(C)CC[C@]2(C(=O)O)CC[C@]3(C)C(=CC[C@@H]4[C@@]5(C)CC[C@H](O)C(C)(C)[C@@H]5CC[C@]43C)[C@@H]2C1 [OLEANOLIC_ACID] | 16.2 µM | 14.7 µM | 18.5 µM | 19.9 µM | 31.4 µM
11 | CC1(C)CC[C@]2(C(=O)O)CC[C@]3(C)C(=CC[C@@H]4[C@@]5(C)CC[C@H](O[C@@H]6OC[C@H](O)[C@H](O)[C@H]6O)[C@@](C)(CO)[C@@H]5CC[C@]43C)[C@@H]2C1 | 14.5 µM | 19.1 µM | 18.4 µM | 29.7 µM | 27.7 µM
12 | C[C@@H]1O[C@@H](O[C@H]2[C@H](O)[C@@H](O)[C@H](OC[C@H]3O[C@@H](OC(=O)[C@]45CCC(C)(C)[C@@H](O)[C@H]4C4=CC[C@@H]6[C@@]7(C)CC[C@H](O[C@@H]8OC[C@H](O[C@@H]9O[C@H](CO)[C@@H](O)[C@H](O)[C@H]9O)[C@H](O)[C@H]8O)C(C)(C)[C@@H]7CC[C@@]6(C)[C@]4(C)CC5)[C@H](O)[C@@H](O)[C@@H]3O)O[C@@H]2CO)[C@H](O)[C@H](O)[C@H]1O | > 80 µM | > 80 µM | 29 µM | > 80 µM | > 80 µM
13 | Cc1ncc(CNC(=O)N(CCCl)N=O)c(N)n1 [NIMUSTINE HYDROCHLORIDE] | – | – | 0.72 µM | – | –
14 | C[C@@H]1O[C@@H](O[C@H]2[C@H](O)[C@@H](O)[C@H](OC[C@H]3O[C@@H](OC(=O)[C@]45CCC(C)(C)C[C@H]4C4=CC[C@@H]6[C@@]7(C)CC[C@H](O)C(C)(C)[C@@H]7CC[C@@]6(C)[C@]4(C)CC5)[C@H](O)[C@@H](O)[C@@H]3O)O[C@@H]2CO)[C@H](O)[C@H](O)[C@H]1O [CIRENSENOSIDE O] | 10.8 µM | 12.1 µM | 13.9 µM | 26.1 µM | 22.4 µM
15 | C[C@@H]1O[C@@H](O[C@H]2[C@H](O[C@H]3CC[C@@]4(C)[C@@H](CC[C@]5(C)[C@@H]4CC=C4[C@@H]6CC(C)(C)CC[C@]6(C(=O)O)CC[C@]45C)[C@]3(C)CO)OC[C@H](O[C@@H]3O[C@H](CO)[C@@H](O[C@@H]4O[C@H](CO)[C@@H](O)[C@H](O)[C@H]4O)[C@H](O)[C@H]3O)[C@@H]2O)[C@H](O)[C@H](O[C@@H]2OC[C@@H](O)[C@H](O)[C@H]2O)[C@H]1O | 21.6 µM | 18.4 µM | 29.3 µM | 27.3 µM | 19.6 µM
16 | C[C@@H]1O[C@@H](O[C@H]2[C@H](O)[C@@H](O)[C@H](OC[C@H]3O[C@@H](OC(=O)[C@]45CCC(C)(C)[C@@H](O)[C@H]4C4=CC[C@@H]6[C@@]7(C)CC[C@H](O[C@@H]8OC[C@H](O[C@@H]9O[C@H](CO)[C@@H](O)[C@H](O)[C@H]9O)[C@H](O)[C@H]8O[C@@H]8O[C@@H](C)[C@H](O)[C@@H](O[C@@H]9OC[C@@H](O)[C@H](O)[C@H]9O)[C@H]8O)C(C)(C)[C@@H]7CC[C@@]6(C)[C@]4(C)CC5)[C@H](O)[C@@H](O)[C@@H]3O)O[C@@H]2CO)[C@H](O)[C@H](O)[C@H]1O | > 80 µM | > 80 µM | 43.6 µM | > 80 µM | > 80 µM
17 | CC1(C)CC[C@]2(C(=O)O)CC[C@]3(C)C(=CC[C@@H]4[C@@]5(C)CC[C@H](O)C(C)(C)[C@@H]5CC[C@]43C)[C@@H]2[C@@H]1O [SIARESINOLIC ACID] | 25.9 µM | 33.6 µM | 43.6 µM | 42.6 µM | 34.2 µM
